Measured values: ChEMBL document CHEMBL1130866, “Conodiparines A-D, new bisindoles from Tabernaemontana. Reversal of vincristine-resistance with cultured cells” (Bioorg Med Chem Lett, 1998)
Converted amounts (≈) assume the structure as drawn.

Key:
Assay type in all cases: functional, cell-based
[1] = test system: KB; experiment: Compound was evaluated for its cytotoxicity against vincristine-sensitive KB/S human oral epidermoid carcinoma cell lines.
[2] = test system: KB; experiment: Compound was evaluated for its cytotoxicity against vincristine-resistant KB/VJ300 human oral epidermoid carcinoma cell lines, with added vincristine 0.25 ug/mL.
[3] = test system: KB; experiment: Compound was evaluated for its cytotoxicity against vincristine-resistant KB/VJ300 human oral epidermoid carcinoma cell lines.

Row | SMILES | IC50 [1] | IC50 [2] | IC50 [3]
1 | C/C=C1/CN(C)[C@H]2Cc3c([nH]c4ccccc34)[C@@H](c3c(OC)ccc4c5c([nH]c34)[C@]3(C(=O)OC)C[C@@H]4C[C@H]([C@H](C)O)C3N(CC5)C4)C[C@H]1[C@]2(CO)C(=O)OC | 20.8 µg/mL (≈ 27.7 µM) | 2.45 µg/mL (≈ 3.26 µM) | 15 µg/mL (≈ 20 µM)
2 | C/C=C1/CN(C)[C@H]2Cc3c([nH]c4ccccc34)[C@@H](c3c(OC)ccc4c5c([nH]c34)[C@]3(C(=O)OC)C[C@@H]4C[C@H](C(C)=O)C3N(CC5)C4)C[C@H]1[C@]2(CO)C(=O)OC | 18.6 µg/mL (≈ 24.8 µM) | 4.6 µg/mL (≈ 6.14 µM) | 13.6 µg/mL (≈ 18.2 µM)
3 | C/C=C1\CN(C)[C@H]2Cc3c([nH]c4ccccc34)[C@@H](c3cc4c5c([nH]c4cc3OC)[C@]3(C(=O)OC)C[C@@H]4C[C@H]([C@H](C)O)C3N(CC5)C4)C[C@H]1[C@]2(CO)C(=O)OC | 19.2 µg/mL (≈ 25.6 µM) | 1.45 µg/mL (≈ 1.93 µM) | 13.5 µg/mL (≈ 18 µM)
4 | C/C=C1/CN(C)[C@H]2Cc3c([nH]c4ccccc34)[C@@H](c3cc4c5c([nH]c4cc3OC)[C@]3(C(=O)OC)C[C@@H]4C[C@H](C(C)=O)[C@@H]3N(CC5)C4)C[C@H]1[C@]2(CO)C(=O)OC | 21.4 µg/mL (≈ 28.6 µM) | 5.6 µg/mL (≈ 7.48 µM) | 17 µg/mL (≈ 22.7 µM)
5 | CC[C@]1(O)C[C@H]2CN(CCc3c([nH]c4ccccc34)[C@@](C(=O)OC)(c3cc4c(cc3OC)N(C=O)[C@H]3[C@@](O)(C(=O)OC)[C@H](OC(C)=O)[C@]5(CC)C=CCN6CC[C@]43[C@@H]65)C2)C1 [VINCRISTINE] | 0.014 µg/mL (≈ 0.017 µM) |  | 1.05 µg/mL (≈ 1.27 µM)
